Reference: article PMC7817691 (Nature Communications, 2021)

Legend:
SARS-CoV-2 PLpro [1] = target: T1, SARS-CoV-2 PLpro (Severe acute respiratory syndrome coronavirus 2, UniProt P0DTD1); format: binding
T1 construct: gene rep

SARS-CoV-2 PLpro [2] = target: T1, SARS-CoV-2 PLpro; format: biochemical

Compound	1H,15N-HSQC NMR competition with 15N-ISG15 (SARS-CoV-2 PLpro [1])	IC50 (SARS-CoV-2 PLpro [2])
Cc1ccc(N)cc1C(=O)N[C@H](C)c1cccc2ccccc12 [GRL0617]	GRL0617 competes with ISG15 for the binding site in PLpro	
CC(=O)Nc1ccc(C)c(C(=O)N[C@H](C)c2cccc3ccccc23)c1 [compound 6]		11 ± 3 µM
Nc1nc(=S)c2[nH]cnc2[nH]1 [Tioguanine]		72 ± 12 µM
